Laboratory results from patent US9420813B2, “Sweetener” (AJINOMOTO CO., INC., priority 2007, dated 2016).
*1 amine or outer side, *2 acyl side, *3 side chain or, on linkers, in order; H or OH if unused. Where no end group is shown, it is not given here. [ ]: non-standard residue; d: D form. γGlu = O=C(O)[C@H](CCC(=O)[*:2])N[*:1]; Abu = CC[C@H](N)C(=O)O

Tests used:
[1] = Quantitative sensory evaluation test, intensity of kokumi-imparting activity; set-up: key to Kokumi intensity, initial and middle taste / Kokumi intensity, aftertaste / Taste profile: *: Unmeasurable: kokumi-imparting activity is too strong to measure by sensory evaluation
Description: The quantitative sensory evaluation test was performed as follows. […] When a sample is acidic when dissolved, the pH was adjusted with NaOH to pH 6.8 to 7.2 before use. Because it is known that glutathione can impart kokumi to a food, glutathione was used as a comparative control. The test was performed with n=3 based on the following sensory evaluation scores: control was given 0 points, glutathione addition was given 3 points. […] It should be noted that the term “initial and middle taste” is a collective term of the initial taste and middle taste.
The quantitative sensory evaluation test was performed as follows. […] When a sample is acidic when dissolved, the pH of the sample was adjusted with NaOH to pH 6.8 to 7.2 before use. The test was performed with n=5 based on the following sensory evaluation scores: control was given 0 point and glutathione addition was given 3 points.
The quantitative sensory evaluation test was performed as follows. […] As for a sample which is acidic when the sample is dissolved, pH of the sample was adjusted with NaOH to pH 6.8 to 7.2 before use. The test was performed with n=12 based on the following sensory evaluation scores: control: 0 point and glutathione addition: 3 points.

human calcium receptor = molecular target: T1, human calcium receptor (Homo sapiens, UniProt P41180); experiment: Calcium receptor-activating effect, Ca ion concentration-dependent Cl ionic current in Xenopus laevis oocyte expression system; assay type: cell-based; conditions: for Activity (lowest concentration at which current is detected): peptide added at 1,000 to 0.1 μM, Ca ion concentration-dependent Cl response current, oocytes voltage-clamped at −70 mV
T1 construct: expressed in transfected cells; host or cells: Xenopus laevis oocytes injected with receptor cRNA; the gene was amplified by PCR from human kidney cDNA (Clontech) and cloned in pBR322
T1 sequence (P41180 20-1078): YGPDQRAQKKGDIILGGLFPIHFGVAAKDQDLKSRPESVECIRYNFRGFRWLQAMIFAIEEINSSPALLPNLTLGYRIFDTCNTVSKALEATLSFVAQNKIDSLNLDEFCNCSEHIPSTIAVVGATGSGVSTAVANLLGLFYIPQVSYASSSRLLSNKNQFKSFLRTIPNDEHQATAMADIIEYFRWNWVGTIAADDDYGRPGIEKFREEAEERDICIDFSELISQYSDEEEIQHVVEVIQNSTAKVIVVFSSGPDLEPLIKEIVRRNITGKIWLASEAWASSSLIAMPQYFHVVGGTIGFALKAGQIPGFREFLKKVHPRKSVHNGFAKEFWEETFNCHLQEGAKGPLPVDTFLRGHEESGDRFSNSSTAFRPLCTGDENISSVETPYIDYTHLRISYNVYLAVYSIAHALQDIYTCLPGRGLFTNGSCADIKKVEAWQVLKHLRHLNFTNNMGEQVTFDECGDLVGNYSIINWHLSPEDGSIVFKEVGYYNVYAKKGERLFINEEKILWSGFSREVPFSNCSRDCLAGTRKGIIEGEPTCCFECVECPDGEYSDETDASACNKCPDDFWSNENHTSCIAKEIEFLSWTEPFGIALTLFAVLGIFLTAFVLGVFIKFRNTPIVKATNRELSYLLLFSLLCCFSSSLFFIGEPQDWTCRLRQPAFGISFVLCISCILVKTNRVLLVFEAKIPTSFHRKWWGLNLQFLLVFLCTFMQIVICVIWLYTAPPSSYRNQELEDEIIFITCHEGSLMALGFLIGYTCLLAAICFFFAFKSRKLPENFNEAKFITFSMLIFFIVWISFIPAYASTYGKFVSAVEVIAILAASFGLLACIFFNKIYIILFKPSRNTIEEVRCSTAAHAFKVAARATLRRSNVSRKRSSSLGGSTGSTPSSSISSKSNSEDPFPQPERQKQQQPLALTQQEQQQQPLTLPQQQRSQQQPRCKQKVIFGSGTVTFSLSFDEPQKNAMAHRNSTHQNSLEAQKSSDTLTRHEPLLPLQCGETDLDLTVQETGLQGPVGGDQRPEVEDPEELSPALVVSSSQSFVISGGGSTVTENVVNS
Description: For evaluation of the calcium receptor-activating effect, Ca ion concentration-dependent Cl ionic current measuring method using a Xenopus laevis oocyte expression system was used. If activator is added to Xenopus laevis oocytes in which the calcium receptor is expressed, intracellular Ca ions increase. Then, the Ca ion concentration-dependent Cl channel opens, and the intracellular current value changes as an ionic current. By measuring the change in the intracellular current value, whether the calcium receptor-activating effect is present or not can be determined.
Specifically, the abdomen of Xenopus laevis was opened, and an egg batch was taken out and then treated with a 1% collagenase solution at 20° C. for 2 hours to obtain individual oocytes. Into each oocyte, 50 nl of 1 μg/μl receptor cRNA or 50 nl of sterilized water per oocyte were injected by using a micro glass capillary, and the oocytes were cultured at 18° C. for 2 to 3 days. For the culture, a solution obtained by adding 2 mM of pyruvic acid, 10 U/ml of penicillin and 10 μg/ml of streptomycin to the solution in Reference Example 2 was used. After the culture, a test solution was added to the oocytes injected with cRNA or sterilized water. Electrophysiological measurement was performed by using an amplifier Geneclamp 500 (manufactured by Axon) and recording software AxoScope 9.0 (manufactured by Axon). The oocytes were voltage-clamped at −70 mV by the double electrode voltage clamp method, and the intracellular current via the Ca ion concentration-dependent Cl ion was measured. The maximum value of the intracellular currents was defined as the response current value.
The ability of L-amino acids to activate the calcium receptor was evaluated by using the method described in Reference Example 6. That is, oocytes injected with cRNA of the calcium receptor or sterilized water were prepared, and voltage-clamped at −70 mV by the double electrode voltage clamp method. To the voltage-clamped oocytes, alanine (10 mM), arginine (10 mM), asparagine (10 mM), aspartic acid (10 mM), cysteine (10 mM), glutamine (10 mM), glutamic acid (10 mM), glycine (10 mM), histidine (10 mM), isoleucine (10 mM), leucine (10 mM), lysine (10 mM), methionine (10 mM), phenylalanine (10 mM), proline (10 mM), serine (10 mM), threonine (10 mM), tryptophan (10 mM), tyrosine (10 mM), valine (10 mM), ornithine (10 mM), taurine (10 mM) or hydroxyproline (10 mM) was added, and Ca ion concentration-dependent Cl response current was measured. […] 25, 2000, 97(9): 4814-9.
The effect of D-cysteine for activating a calcium receptor was evaluated by using the method described in Reference Example 6. That is, oocytes injected with cRNA of the calcium receptor or sterilized water were prepared, and voltage-clamped at −70 mV by the double electrode voltage clamp method. To the voltage-clamped oocytes, D-cysteine (10 mM), L-cysteine (10 mM), D-tryptophan (10 mM) or L-tryptophan (10 mM) was added, and Ca ion concentration-dependent Cl response current was measured.
The effect of peptide for activating calcium receptor was evaluated by using the method described in Reference Example 6. That is, oocytes injected with cRNA of the calcium receptor or sterilized water were prepared, and voltage-clamped at −70 mV by the double electrode voltage clamp method. To the voltage-clamped oocytes, γ-Glu-Cys-Gly (50 μM), γ-Glu-Cys(SNO)-Gly (50 μM), γ-Glu-Ala (50 μM), γ-Glu-Gly (500 μM), γ-Glu-Cys (50 μM), γ-Glu-Met (500 μM), γ-Glu-Thr (50 μM), γ-Glu-Val (50 μM), γ-Glu-Orn (500 μM), Asp-Gly (1 mM), Cys-Gly (1 mM), Cys-Met (1 mM), Glu-Cys (50 μM), Gly-Cys (500 μM) or Leu-Asp (1 mM) was added, and Ca ion concentration-dependent Cl response current was measured.
The ability of a peptide to activate calcium receptor was evaluated in the same manner as that of Reference Example 10.

[2] = sample 0.1 g/dl, control 0, glutathione 3 points, n=3
[3] = sample 0.1 g/dl, control 0, glutathione 3 points, n=5
[4] = sample 0.1 g/dl, control 0, glutathione 3 points, n=12
[5] = sample 0.01 g/dl, control 0, glutathione 3 points, n=5
[6] = sample 0.01 g/dl, control 0, glutathione 3 points, n=12

Compound | Kokumi intensity, aftertaste [1, 2] [points] | Kokumi intensity, initial and middle taste [1, 2] [points] | Kokumi intensity, aftertaste [1, 3] [points] | Kokumi intensity, initial and middle taste [1, 3] [points] | Kokumi intensity, aftertaste [1, 4] [points] | Kokumi intensity, initial and middle taste [1, 4] [points] | Evaluation comments ([1]; sample 0.1 g/dl, n=3) | Taste profile ([1]; sample 0.1 g/dl, n=5) | Taste profile ([1]; sample 0.1 g/dl, n=12) | effect for activating calcium receptor (Cl response current) (human calcium receptor; peptide added at 50 μM) | Kokumi intensity, aftertaste [1, 5] [points] | Kokumi intensity, initial and middle taste [1, 5] [points] | Kokumi intensity, aftertaste [1, 6] [points] | Kokumi intensity, initial and middle taste [1, 6] [points] | Kokumi intensity, aftertaste ([1]; sample 0.1 g/dl, n=5, symbol) | Kokumi intensity, initial and middle taste ([1]; sample 0.1 g/dl, n=5, symbol) | Taste profile ([1]; sample 0.1 g/dl, n=5, symbol) | Activity (lowest concentration at which current is detected) (human calcium receptor) [µM]
N[C@@H](CCC(=O)N[C@@H](CS)C(=O)NCC(=O)O)C(=O)O [γ-Glu-Cys-Gly, reference compound] | 3.0 | 3.0 | 3.0 | 3.0 | 3.0 | 3.0 | Thickness, | Thickness, | Thickness, | definite effect for activating calcium receptor |  |  |  |  |  |  |  | 
[γGlu]-Val-Gly |  |  |  |  |  |  |  |  |  |  | 3.0 | 3.0 | 3.0 | 3.0 | * | * | * | 0.1
[γGlu]-[Abu]-Gly |  |  |  |  |  |  |  |  |  |  |  |  | 2.0 | 3.0 |  |  |  | 3
